Structures are written as SMILES.

From US10703764B2, “Benzopiperazine compositions as BET bromodomain inhibitors” (FORMA Therapeutics, Inc., priority 2013, dated 2020) come the findings set out here.

One experiment concerns the target T1, BRD4 BD2 (Homo sapiens, UniProt O60885).
T1 construct: made in house
In words: AlphaScreen binding assay, BRD4 Bromodomain 2. In short, it runs like this: (§1)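 An AlphaScreen competition format was used with His-BRD4 BD1 or BD2 and biotin-H4 K5/8/12/16-acetyl peptide, each at matched final levels of 50 nM (BD1) or 100 nM (BD2). Incubation in HEPES/NaCl buffer with 0.1% BSA and 0.01% Triton X-100 ran ≥1 h before IC50 determination.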

In a further experiment the target is T2, BRD4 BD1 (Homo sapiens, UniProt O60885).
T2 construct: made in house
The experiment is described as follows: AlphaScreen binding assay, BRD4 Bromodomain 1. In short, it runs like this: as §1

As for `CC(=O)N1c2ccc(-c3cnn(CC(=O)N4CCOCC4)c3)cc2N(C(=O)C2CC2)C[C@@H]1C` [Example I-125, (S)-2-(4-(1-acetyl-4-(cyclopropanecarbonyl)-2-methyl-1,2,3,4-tetrahydroquinoxalin-6-yl)-1H-pyrazol-1-yl)-1-morpholinoethanone], the IC50 (usually the concentration that inhibits the measured activity by half) on BRD4 BD2 lay within 0.05 to 0.5 µM; on BRD4 BD1, 1 to 10 µM.

For `CC(=O)N1c2ccccc2N(S(=O)(=O)c2cn(C)c(C)n2)C[C@@H]1C` [Example I-956], the half-inhibitory concentration (IC50) was greater than 0.5 µM on BRD4 BD2 and greater than 10 µM at BRD4 BD1.

Turning to `CC(C)OC(=O)N1C[C@H](C)N(C(=O)C2CC2)c2ccc(-c3cnn(CCN(C)C)c3)cc21` [Example I-646], the IC50 on BRD4 BD2 is greater than 0.5 µM; at BRD4 BD1, 1 to 10 µM.

Turning to `CC(=O)N1c2ccc(-c3cnn(Cc4noc(C)n4)c3)cc2N(C(=O)OC(C)C)C[C@@H]1C` [Example I-138, (S)-isopropyl 4-acetyl-3-methyl-7-(1-((5-methyl-1,2,4-oxadiazol-3-yl)methyl)-1H-pyrazol-4-yl)-3,4-dihydroquinoxaline-1(2H)-carboxylate], the IC50 was in the range of 0.05 to 0.5 µM at BRD4 BD2 and 0.1 to 1 µM on BRD4 BD1.

With `CC(=O)N1c2ccccc2N(Cc2ccc(O)c(C)c2)C[C@@H]1C` [Example I-904], the figures for the IC50 at BRD4 BD2 and on BRD4 BD1 were greater than 0.5 µM and greater than 10 µM, respectively.

With `COc1cccc(S(=O)(=O)N2C[C@H](C)N(C(C)=O)c3ccccc32)c1` [Example I-945], the results for the IC50 on BRD4 BD2 and at BRD4 BD1 were greater than 0.5 µM and greater than 10 µM, respectively.

Take `CC(=O)N1c2ccc(-c3cccnc3)cc2N(C(=O)c2ccco2)C[C@@H]1C` [Example I-819]: the IC50 was 0.05 to 0.5 µM on BRD4 BD2 and 1 to 10 µM on BRD4 BD1.

As for `COc1ccccc1NC(=O)N1C[C@H](C)N(C(C)=O)c2ccc(-c3ccc(S(C)(=O)=O)cc3)cc21` [Example I-970], the figures for the half-maximal inhibitory concentration (IC50) at BRD4 BD2 and at BRD4 BD1 were 0.05 to 0.5 µM and 1 to 10 µM, respectively.

With `CC(=O)N1c2ccc(N(C)Cc3ccccc3)cc2N(C(=O)c2ccco2)C[C@@H]1C` [Example I-990], the half-maximal inhibitory concentration (IC50) lay in the range of 0.05 to 0.5 µM at BRD4 BD2 and 1 to 10 µM at BRD4 BD1.

Consider `CC(=O)N1c2ccccc2N(C(=O)c2ccc(Cl)cc2)C[C@@H]1C` [Example I-743], for which the IC50 on BRD4 BD2 is greater than 0.5 µM; on BRD4 BD1 it was greater than 10 µM.

As to `CC(=O)N1c2ccc(-c3cccc4ccsc34)cc2N(C(=O)c2ccco2)C[C@@H]1C` [Example I-873], the half-maximal inhibitory concentration (IC50) on BRD4 BD2 was greater than 0.5 µM; at BRD4 BD1, 1 to 10 µM.

As for `CC(=O)N1c2ccc(-c3ccc(S(C)(=O)=O)cc3)cc2N(C(=O)c2cc3cc(Cl)ccc3[nH]2)CC1C` (stereo not shown) [Example I-785], the results for the IC50 on BRD4 BD2 and at BRD4 BD1 were 0.05 to 0.5 µM and 1 to 10 µM, respectively.

Take `COc1cc(F)ccc1-c1ccc2c(c1)N(C(=O)c1ccco1)C[C@H](C)N2C(C)=O` [Example I-826]: the 50% inhibitory concentration (IC50) is greater than 0.5 µM on BRD4 BD2 and greater than 10 µM on BRD4 BD1.

Regarding `CC(=O)N1c2ccc(-c3ccc(S(C)(=O)=O)cc3)cc2N(C(=O)OCc2ccccc2)C[C@@H]1C` [Example I-230], the IC50 at BRD4 BD2 was greater than 0.5 µM; on BRD4 BD1, greater than 10 µM.

With `CC(=O)N1c2ccc(-c3ccc(S(C)(=O)=O)cc3)cc2N(C(=O)c2nccn2C)C[C@@H]1C` [Example I-784], the 50% inhibitory concentration (IC50) at BRD4 BD2 is greater than 0.5 µM; on BRD4 BD1, greater than 10 µM.

Turning to `C[C@H]1CN(C(=O)C2CC2)c2cc(-c3ccc(S(=O)(=O)CCN)cc3)ccc2N1C(=O)C1CC1` [Example I-448], the IC50 on BRD4 BD2 was less than 0.05 µM; at BRD4 BD1, 0.1 to 1 µM.

Consider `C[C@H]1CN(C(=O)c2ccco2)c2cc(-c3ccc(S(C)(=O)=O)cc3)ccc2N1C(=O)C1CCC1` [Example I-374], for which the results for the half-inhibitory concentration (IC50) on BRD4 BD2 and at BRD4 BD1 were greater than 0.5 µM and 1 to 10 µM, respectively.

In the case of `CC(=O)N1c2ccc(-c3cnn(C)c3C)cc2N(C(=O)OC(C)C)C[C@@H]1C` [Example I-339], the concentration for half-maximal inhibition (IC50) at BRD4 BD2 was in the range of 0.05 to 0.5 µM; at BRD4 BD1 it was 1 to 10 µM.

`CC(=O)N1c2ccc(-c3cnn(CC(=O)N(C)C4CC4)c3)cc2N(C(=O)C2CC2)C[C@@H]1C` [Example I-658]: the half-maximal inhibitory concentration (IC50) lay in the range of 0.05 to 0.5 µM on BRD4 BD2 and 1 to 10 µM on BRD4 BD1.

Take `CC(=O)N1c2ccc(-c3ccc(S(C)(=O)=O)cc3)cc2N(C(=O)c2ccc(CN(C)C)o2)C[C@@H]1C` [Example I-984]: the 50% inhibitory concentration (IC50) was 0.05 to 0.5 µM on BRD4 BD2 and greater than 10 µM on BRD4 BD1.

Regarding `CC(=O)N1c2ccc(-c3cnn(C4COC4)c3)cc2N(C(=O)CC(F)(F)F)C[C@@H]1C` [Example I-108, (S)-1-(4-acetyl-3-methyl-7-(1-(oxetan-3-yl)-1H-pyrazol-4-yl)-3,4-dihydroquinoxalin-1 (2H)-yl)-3,3,3-trifluoropropan-1-one], the IC50 on BRD4 BD2 was 0.05 to 0.5 µM; on BRD4 BD1 it was greater than 10 µM.

Consider `CC(=O)N1c2ccccc2N(C(=O)c2cc3cc(Cl)ccc3o2)C[C@@H]1C` [Example I-759], for which the IC50 at BRD4 BD2 was greater than 0.5 µM; at BRD4 BD1, greater than 10 µM.

Turning to `COC(=O)N1c2ccc(-c3ccc(N(C)S(C)(=O)=O)cc3)cc2N(C(=O)Oc2ccccn2)C[C@@H]1C` [Example I-1331], the IC50 lay within 0.05 to 0.5 µM at BRD4 BD2 and 1 to 10 µM at BRD4 BD1.

On to `CC(=O)N1c2ccccc2N(S(=O)(=O)c2ccccc2C)C[C@@H]1C` [Example I-941], for which the IC50 on BRD4 BD2 is greater than 0.5 µM; at BRD4 BD1, greater than 10 µM.

Consider `CC(=O)N1c2ccc(-c3cnc(N(C)C)nc3)cc2N(C(=O)c2ccco2)C[C@@H]1C` [Example I-831], for which the IC50 at BRD4 BD2 is less than 0.05 µM; on BRD4 BD1, 1 to 10 µM.

Consider `CC(=O)N1c2ccc(-c3cnn(C4CC4)c3)cc2N(C(=O)Oc2ncccc2C(F)(F)F)C[C@@H]1C` [Example I-1188], for which the IC50 at BRD4 BD2 was greater than 0.5 µM; at BRD4 BD1, greater than 10 µM.

For `CC(=O)N1c2ccccc2N(C(=O)CN2CCCCCC2=O)C[C@@H]1C` [Example I-764], the 50% inhibitory concentration (IC50) on BRD4 BD2 is greater than 0.5 µM; on BRD4 BD1 it was greater than 10 µM.

With `CC(=O)N1c2ccc(-c3ccc(CS(N)(=O)=O)cc3)cc2N(C(=O)c2ccco2)C[C@@H]1C` [Example I-418], the half-maximal inhibitory concentration (IC50) at BRD4 BD2 was less than 0.05 µM; on BRD4 BD1, 1 to 10 µM.

Consider `CC(=O)N1c2ccc(-c3cnn(C4COC4)c3)cc2N(C(=O)CC2CCCC2)C[C@@H]1C` [Example I-111, (S)-1-(4-acetyl-3-methyl-7-(1-(oxetan-3-yl)-1H-pyrazol-4-yl)-3,4-dihydroquinoxalin-1(2H)-yl)-2-cyclopentylethanone], for which the figures for the IC50 on BRD4 BD2 and at BRD4 BD1 were 0.05 to 0.5 µM and 1 to 10 µM, respectively.

With `CC(=O)N1c2ccc(-c3ccc(S(C)(=O)=O)cc3)cc2N(C(=O)c2oc3ccccc3c2-c2ccccc2)C[C@@H]1C` [Example I-790], the IC50 at BRD4 BD2 was greater than 0.5 µM; on BRD4 BD1, greater than 10 µM.

In the case of `COc1cc(Cl)ccc1S(=O)(=O)N1C[C@H](C)N(C(C)=O)c2ccccc21` [Example I-959], the IC50 at BRD4 BD2 is greater than 0.5 µM; at BRD4 BD1 it was greater than 10 µM.

Take `CCCn1cc(-c2ccc3c(c2)N(C(=O)c2ccco2)C[C@H](C)N3C(=O)C(F)(F)F)cn1` [Example I-363]: the half-inhibitory concentration (IC50) fell in the range of 0.05 to 0.5 µM on BRD4 BD2 and 1 to 10 µM at BRD4 BD1.

Turning to `CC(C)OC(=O)N1C[C@H](C)N(C(=O)C2CC2)c2ccc(-c3ccc(C(=O)NCc4ncco4)cc3)cc21` [Example I-585], the values for the IC50 at BRD4 BD2 and at BRD4 BD1 were greater than 0.5 µM and 1 to 10 µM, respectively.

Take `COc1ccccc1CNC(=O)N1C[C@H](C)N(C(C)=O)c2ccc(-c3ccc(S(C)(=O)=O)cc3)cc21` [Example I-972]: the IC50 on BRD4 BD2 was greater than 0.5 µM; at BRD4 BD1, greater than 10 µM.

Take `CC(=O)N1c2ccc(Nc3ccccc3)cc2N(C(=O)c2ccco2)C[C@@H]1C` [Example I-991]: the values for the half-maximal inhibitory concentration (IC50) on BRD4 BD2 and on BRD4 BD1 were 0.05 to 0.5 µM and 1 to 10 µM, respectively.
